{
  "source": "patent US5403824A",
  "about": "“Methods for the treatment of osteoporosis” (The Procter & Gamble Company, priority 1993, dated 1995)",
  "key": {"[1]": {"test_system": "human subject with postmenopausal osteoporosis or low bone mass", "experiment": "treatment of human subject with osteoporosis, vertebral density by dual-energy photon absorptiometry", "format": "in vivo", "method": "A human subject weighing about 60 kg (132 lbs), suffering from postmenopausal osteoporosis, is treated by a method of this invention. Specifically, for two years, the enkephalin-degrading enzyme inhibitor DL-3-mercapto-2-benzylpropanoylglycine is administered orally, in a cyclical regimen, where each cycle consists of an active period of 28 days during which a tablet containing 160 mg of said inhibitor is administered each day, followed by a non-active period of 28 days during which the subject receives a daily supplement of calcium (1,000 mg/day), with repeat of cycle.\nA human subject weighing about 60 kg (132 lbs), suffering from postmenopausal osteoporosis, is treated by a method of this invention. Specifically, for two years, the compound H-Tyr-D-Ala-Gly-Phe-D-Leu-OH (\"DADLE\") is administered to the subject, in a cyclical regimen, where each cycle consists of an active period of 28 days during which a solution containing 30 mg of DADLE is administered intravenously every day, followed by a non-active period of 28 days during which the patient receives a daily supplement of calcium (1,000 mg/day), with repeat of cycle.\n(§1) A human subject weighing about 60 kg (132 lbs), suffering from postmenopausal osteoporosis, is treated by a method of this invention. Specifically, for two years, an enkephalin of the formula Tyr-D-Cys(S-t-butylthioether)-Gly-Phe-Leu-Thr(O-t-butylether) (\"BUBUC\") is administered to the subject, in a cyclical regimen, where each cycle consists of an active period of 28 days during which a solution containing 30 mg of BUBUC is intravenously administered each day, followed by a non-active period of 28 days during which the patient receives a daily supplement of calcium (1,000 mg/day), with repeat of cycle.\nas §1, with “years, the” for “years, an”, “enkephalin secretagogue Tyr-Arg^1,” for “enkephalin of the formula Tyr-D-Cys(S-t-butylthioether)-Gly-Phe-Leu-Thr(O-t-butylether) (\"BUBUC\")”, “of Tyr-Arg” for “of BUBUC”, “the subject” for “the patient”, “cycle. […]” for “cycle.”\nA human subject weighing about 60 kg (132 lbs), suffering from postmenopausal osteoporosis, is treated by a method of this invention. Specifically, each day for five years, the subject is administered 3 tablets, comprised as follows.\nA human subject weighing about 60 kg (132 lbs) is evaluated approximately four years after spontaneous menopause, and is found to have low bone mass. The subject is then treated by a method of this invention to treat osteoporosis. Specifically, once each month for five years, the subject is administered, via intravenous injection, 5 ml of a solution comprised as follows."}, "[2]": {"test_system": "Rat osteoblast-like cells (ROS 17/2.8)", "experiment": "[3H]-thymidine incorporation, proliferation of osteoblast-like cells", "format": "cell-based", "conditions": "ROS 17/2.8, 18 hrs incubation, 2 hrs pulse", "excerpt": "Stimulation of osteoblast-like cell proliferation can be measured according to several art-recognized in vitro models. One such model is described in European Patent Publication No. 384,731, by Rodan et al, published Aug. 29, 1990, which is incorporated herein by reference. (Applicants have modified this method by reducing regent volumes to one-quarter those described and by utilizing Dulbecco's Modified eagle's Medium (DMEM).) In this model, proliferation (division) of, for example, rat osteoblast-like cells (rat osteosarcoma (ROS) cells, rat calvaria cells, etc.) is observed by measuring the amount of radiolabeled thymidine ([^3 H]thymidine) incorporated by these cells. ([^3 H]thymidine is \"incorporated\" by cellular DNA being synthesized as a result of cell proliferation.) The greater the level of [^3 H]thymidine measured, the greater the amount of proliferation of the osteoblast cells.\nMore specifically, a test sample (comprised of a test compound and osteoblast-like cells) and a control sample (comprised of only osteoblast-like cells) are pulsed with [^3 H]thymidine. The amount of [^3 H]thymidine incorporated by the cells is measured using a direct beta counter.\nRat osteoblast-like cells (ROS 17/2.8) are plated at 4×10^3 cells/well in a 96-well plate in Dulbecco's Modified eagle's Medium supplemented with 2% (v/v) Fetal Bovine Serum, and incubated for 6 hrs. Control (serum-free) medium and test medium (test sample and serum-free medium) are then added to the cells and this combination is incubated for 18 hrs. The cells are then pulsed with [^3 H]-thymidine (1 μCi/well) for 2 hrs. The medium is then removed, the cells are harvested onto glass fibre filters and the amount of [^3 H]-thymidine (counts per minute per well) incorporated into DNA is then determined using a direct beta counter. Values for control groups are then compared to values for treated groups.\n(§2) The compound H-Tyr-D-Ala-Gly-Phe-D-Leu-OH (\"DADLE\") is screened to determine whether it stimulates proliferation of osteoblast-like cells. […] The medium is then removed, the cells are harvested onto glass fibre filters, and the amount of ^3 H-thymidine (counts per minute per well) incorporated into DNA is determined using a direct beta counter. […]\nas §2, with “Tyr-D-Cys(S-t-butylthioether)-Gly-Phe-Leu-Thr(O-t-butylether) (\"BUBUC\")” for “H-Tyr-D-Ala-Gly-Phe-D-Leu-OH (\"DADLE\")”"}, "[3]": {"biological_target": "T1, delta opioid receptor (Cavia porcellus, UniProt A0A286XTF2)", "T1 construct": "A preferred source of delta opioid receptors is guinea pig brain; from tissue; host or cells: guinea pig brain", "T1 sequence (A0A286XTF2 1-366)": "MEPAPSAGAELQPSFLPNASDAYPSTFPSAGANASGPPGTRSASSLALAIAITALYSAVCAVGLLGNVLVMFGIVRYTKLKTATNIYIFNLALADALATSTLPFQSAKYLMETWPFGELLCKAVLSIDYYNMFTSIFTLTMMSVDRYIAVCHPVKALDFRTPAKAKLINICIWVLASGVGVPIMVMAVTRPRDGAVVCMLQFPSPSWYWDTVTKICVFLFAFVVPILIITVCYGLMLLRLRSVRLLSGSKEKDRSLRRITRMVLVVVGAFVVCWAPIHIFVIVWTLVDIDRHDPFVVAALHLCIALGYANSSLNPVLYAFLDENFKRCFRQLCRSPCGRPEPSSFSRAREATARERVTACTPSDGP", "experiment": "inhibition of [3H]DPDPE binding, method of Goldstein et al.", "design": "species or system guinea pig", "conditions": "radioligand [3H]DPDPE", "excerpt": "Affinity for delta opioid receptors can be measured by any of several art-recognized in vitro models. One such model is described by Goldstein et al., and is discussed above. According to this model, a test compound is screened for its ability to inhibit binding of a delta-selective radiolabeled ligand (\"delta-selective radiolabeled ligand\" refers to a radiolabeled compound that is known to have selective affinity to delta opioid receptors) to delta opioid receptor binding sites. More specifically, this in vitro model compares test samples (comprising a delta-selective radiolabeled ligand (\"hot ligand\"); the non-radiolabeled equivalent to the \"hot ligand\" (\"cold ligand\"); test compound at varying concentrations in each test sample; and delta opiate receptor material) and a control sample (comprising hot ligand; cold ligand; and delta opiate receptor material).\nFollowing the protocol set forth by Goldstein et al., the samples are assayed for relative radioactivity.\nIn assessing a compound's in vitro affinity for delta opioid receptors according to the method described by Goldstein et al., the delta-selectiveradiolabeled ligand (\"hot ligand\") is preferrably [^3 H]Tyr-D-Pen-Gly-Phe-D-Pen-OH (\"[^3 H]-DPDPE\"). The preferred \"cold ligand\" is therefore H-Tyr-D-Pen-Gly-Phe-D-Pen-OH (\"cold DPDPE\" or \"DPDPE\"). A preferred source of delta opioid receptors is guinea pig brain. […]"}, "[4]": {"test_system": "osteoblast-like cells", "experiment": "enkephalin secretion from osteoblast-like cells, RIA of immunoreactive enkephalin", "format": "cell-based", "conditions": "48 hrs incubation", "method": "In vitro release of enkephalin can be determined using any of several art-recognized in vitro models. One such model is described by Rosen et al., \"Regulated Expression of Proenkephalin A in Normal Lymphocytes\", 143 J. Immunol. 3703-07 (1989), which is incorporated herein by reference. In this model, \"target cells\" (preferably bone-derived cells, such as human osteoblast-like cells, rat calvaria cells, rat osteosarcoma cells, etc.) are incubated in tissue culture medium in the presence (test sample) and absence (control sample) of a test agent.\nOsteoblast-like cells are incubated in tissue culture medium in the presence (test samples) and absence of the compound Tyr-Arg for 48 hrs. Peptides are extracted from packed cells by homogenization in 10 volumes of 0.2M HCl, heated to 100° C. for 3 min. and centrifuged at 15,000×g for 30 min. at 4° C. An aliquot of the resulting supernatant is purified on a C18 octadecyl Ampere minicolumn using a non-polar extraction procedure as recommended by the manufacturer of the columns. Another portion of the supernatant is lyophilized and reconstituted in 1.0 ml of 50 mM Tris-HCl (pH 8.0), 2 mM CaCl2 containing 20 µg/ml trypsin L-p-tosylamino-2-phenylethyl chloromethyl ketone. After trypsin digestion (2 hr at […]), samples are heated to 100° C. for 20 min., cooled and then treated with carboxypeptidaseB (0.2 μg/ml) for 1 hr. at 37° C. […]"}, "[5]": {"conditions": "30 mg intravenously daily (substitutes at comparable levels), 28 days active / 28 days calcium, two years"}},
  "note": "Square brackets hold non-standard residues; d marks the D form. Peptide text beside a SMILES is read from it. * marks the point of attachment. tBu = CC(C)(C)*",
  "data": [
    {"smiles": "CC(C)C[C@H](NC(=O)[C@H](Cc1ccccc1)NC(=O)CNC(=O)[C@@H](CSC(C)(C)C)NC(=O)[C@@H](N)Cc1ccc(O)cc1)C(=O)N[C@H](C(=O)O)[C@@H](C)OC(C)(C)C", "note": "[BUBUC, Tyr-D-Cys(S-t-butylthioether)-Gly-Phe-Leu-Thr(O-t-butylether)] (H-Y[dC](tBu)GFLT(tBu)-OH)", "values": [
      {"measurement": "density of vertebrae / bone mass", "setting": "[1]; [5]", "result": "an increase in bone mass"},
      {"measurement": "density of vertebrae / bone mass", "setting": "[1]; Example 8: 5 ml of 30.0 mg/ml solution i.v. once each month for five years", "result": "no significant loss in bone mass has occurred"},
      {"measurement": "[3H]-thymidine incorporation (proliferation) vs control", "setting": "[2]", "result": "significantly stimulated proliferation of the osteoblast-like cells"},
      {"measurement": "in vitro delta opioid receptor affinity (IC50 ≤1000 times the IC50 of non-radiolabeled DPDPE)", "setting": "[3]", "result": "significant in vitro delta opioid receptor affinity"}
    ]},
    {"smiles": "N=C(N)NCCC[C@H](NC(=O)[C@@H](N)Cc1ccc(O)cc1)C(=O)O", "note": "[Tyr-Arg]", "values": [
      {"measurement": "immunoreactive enkephalin, enkephalin secretion vs control", "setting": "[4]", "result": "stimulates enkephalin secretion by osteoblast-like cells"},
      {"measurement": "density of vertebrae / bone mass", "setting": "[1]; [5]", "result": "an increase in bone mass"},
      {"measurement": "[3H]-thymidine incorporation (proliferation) vs control", "setting": "[2]", "result": "significantly stimulated proliferation of the osteoblast-like cells"}
    ]}
  ]
}
